Patent US9622472B2, “Molecules that induce disease resistance in plants” (The Regents of the University of California, priority 2013, dated 2017)

Legend:
[1] = test system: pathogen-responsive CaBP22^−333::GUS reporter gene; conditions: transgenic Arabidopsis; reported in Knoth et al. (2009); cited from earlier work
[2] = test system: Hyaloperonospora arabidopsidis (Peronospora); conditions: Arabidopsis; Knoth et al. (2009); cited from earlier work
Pseudomonas syringae = conditions: Arabidopsis; Knoth et al. (2009); cited from earlier work
[3] = test system: virulent Peronospora isolate Noco2; experiment: Noco2 spore inhibition assay in soil-grown Col-0 seedlings; type: in vivo, Hyaloperonospora arabidopsidis (Peronospora)
Description: FIG. 1. Phenyl-imino-methyl-phenol derivatives (PMPs) constitute a large class of new synthetic elicitors. A: Structures of 20 PMP derivatives that were identified by high throughput screening as able to promote expression with the CaBP22 reporter assay. B. CMP199 was further analyzed in the Noco2 spore inhibition assay. Three-week-old soil-grown Col-0 seedlings were spray-infected 24 h after treating with varying concentrations of each synthetic elicitor and then assayed at 7 dpi for spore growth. 100% inhibition=0 spores. The assay was repeated three times with similar results, and the average of those three replicates is shown. DCA=3-5-dicholoroanthranlilic acid; HTC=2-(5-bromo-2-hydroxy-phenyl)-thiazolidine-4-carboxylic acid.
CMP199 (FIG. 1A) was selected for further study to determine whether CMP199 could induce pathogen resistance in soil-grown plants. […] To determine if CMP199 differs from other synthetic elicitors, Col-0 seedlings were treated with DCA or HTC at the indicated concentrations and compared.

| SMILES | induction of pCaBP22^−333::GUS reporter gene [1] | disease resistance triggered [2] | disease resistance triggered (Pseudomonas syringae) | induction of disease resistance ([3]; A. thaliana) | inhibition of Noco2 spores, concentration compared with other synthetic elicitors ([3]; Col-0 seedlings, spray-infected 24 h after treating, assayed at 7 dpi, FIG. 1B) | concentration giving significantly reduced numbers of Noco2 spores ([3]; Col-0 sprayed prior to infection, spores 7 days post infection) [µM] |
| --- | --- | --- | --- | --- | --- | --- |
| Nc1c(Cl)cc(Cl)cc1C(=O)O [DCA, 3-5-dicholoroanthranlilic acid] | induce | fast, strong and transient disease resistance | fast, strong and transient disease resistance | – | – | – |
| COc1cccc(N=Cc2cc(Cl)cc(Cl)c2O)c1 [CMP199, 2,4-dichloro-6-[((3-methoxy-phenyl)imino)methyl]-phenol] | – | – | – | able to induce disease resistance in A. thaliana at very low concentration | much lower concentration than DCA or HTC | ≤ 1 |
